Data taken from patent EP0734259B1, “Use of piperidine compounds in the treatment of schizophrenia” (NOVO NORDISK A/S, priority 1993, dated 1995).
Counter-ions that a name gives are not always drawn.

Experiments:
muscarinic receptors = assay: ^3H-oxotremorine-M binding assay (inhibition of binding to cerebral cortical membranes); conditions: 3 nM ^3H-oxotremorine-M, rat cerebral cortical membranes, 15 minutes at 25°C, read-out: Inhibition of ^3H-Oxo
Description: The affinity of the compounds for the muscarinic receptors was determined using the non-selective agonist ligand, ^3H-oxotremorine-M. Birdsdall N.J.M., Hulme E.C., and Burgen A.S.V., "The Character of Muscarinic Receptors in Different Regions of the Rat Brain", 207 Proc. Roy. Soc. 1 (London, Series B, 1980). Each compound was tested to determine the affinity of the compound for the muscarinic receptors using the following procedure.
For each in vitro binding, male Sprague-Dawley (Harlan Sprague-Dawley, Indianapolis, IN) rats weighing from about 100 to about 150 grams each were sacrificed by decapitation. The brains were quickly removed and the cerebral cortex were dissected from the brain. The cerebral cortex tissue was homogenized in 10 volumes of 0.32 M sucrose and […] at about 1000 x g. The supernatant was centrifuged at about 12,000 x g for about 10 minutes and the resulting pellet was resuspended in 20 mM tris-CI, pH 7.4. The resuspended pellet was centrifuged again for about 10 minutes at about 50,000 x g. The resulting homogenate was preincubated for about 10 minutes at about 25°C and centrifuged again for about 10 minutes at about 50,000 x g. The pellet was resuspended at 1 gram of pellet per 3 ml of buffer and frozen at about -80°C until used.
The aforementioned homogenates mixture was incubated for about 15 minutes at about 25°C and then the homogenates were filtered through glass filters (Whatman, GF/C) with vacuum. The filters were washed 3 times with about 2 ml of cold tris-CI buffer, and placed in scintillation vials containing about 10 ml of scintillation fluid (Ready Protein+, Beckman, Fullerton, CA). Radioactivity trapped on the filters was determined by liquid scintillation spectrometry. Nonspecific binding was determined using 1 µM atropine. […] DeLean, A. et al. Am. J. Physiol., 235, (1978).

rats = assay: Conditioned avoidance behavior in rats; assay type: in vivo, rat; conditions: 3.0 mg/kg s.c. 30 min before the session, active if % avoidance reduced to at least 50%
Text: In a conditioned avoidance test, animals learn to respond during a conditioned stimulus in order to avoid mild shock presentation. A response during the conditioned stimulus is termed an avoidance respone, a response during shock is termed an escape response; a response failure is when the animal fails to respond during either the conditioned stimlus or the shock presentation and is indicative of motor impairment. Animals rapidly learn to avoid 99% of the time. Antipsychotic drugs decrease the percentage of avoidance responses without interfering with the ability of the animal to respond since the animals do emit escape responses. The percentage of response failures is considered a measure of motor impairment.
Rats were required to press a response lever in an experimental chamber in order to avoid or escape foot-shock. Each experimental session consisted of 50 trials. During each trial, the chamber was illuminated and a tone presented for a maximum of 10 sec. A response during the tone immediately terminated the tone and the houselight, ending the trial. In the absence of a response during the tone alone, tone+foot-shock (2.0 mA) was presented for a maximum of 10 sec. A response during shock presentation immediately terminated the shock, the tone and the houselight, ending the trial.
For drug screening, a dose of 3.0 mg/kg was administered s.c. 30 min before the start of the experimental session. A drug was considered active if it reduced the % avoidance responding to at least 50% without producing greater than 50% response failures. For active drugs, a dose-response curve was subsequently determined.

Row | SMILES | IC50 (muscarinic receptors) | Conditioned Avoidance % Avoidance Responses (rats)
1 | COc1nsnc1C1=CCCN(C)C1.O=C(O)C(=O)O [Compound 1, 1,2,5,6-Tetrahydro-3-(3-methoxy-1,2,5-thiadiazol-4-yl)-1-methylpyridine oxalate] | 22 nM | 97%
2 | CCOc1nsnc1C1=CCCN(C)C1.O=C(O)C(=O)O [Compound 2, 3-(3-Ethoxy-1,2,5-thiadiazol-4-yl)-1,2,5,6-tetrahydro-1-methylpyridine oxalate] | 5.7 nM | 70%
3 | CCCOc1nsnc1C1=CCCN(C)C1.O=C(O)C(=O)O [Compound 3, 1,2,5,6-Tetrahydro-1-methyl-3-(3-propoxy-1,2,5-thiadiazol-4-yl)pyridine oxalate] | 1.6 nM | 71%
4 | CCCCOc1nsnc1C1=CCCN(C)C1.O=C(O)C(=O)O [Compound 4, 3-(3-Butoxy-1,2,5-thiadiazol-4-yl)-1,2,5,6-tetrahydro-1-methylpyridine oxalate] | 2 nM | 74%
5 | CCCSc1nsnc1C1=CCCN(C)C1.O=C(O)C(=O)O [Compound 47, 3-(3-Propylthio-1,2,5-thiadiazol-4-yl)-1,2,5,6-tetrahydro-1-methylpyridine oxalate] | 0.9 nM | 49%
6 | CCCCSc1nsnc1C1=CCCN(C)C1.O=C(O)C(=O)O [Compound 48, 3-(3-Butylthio-1,2,5-thiadiazol-4-yl)-1,2,5,6-tetrahydro-1-methylpyridine oxalate] | 1.7 nM | 57%
7 | CSc1nsnc1C1=CCCN(C)C1.O=C(O)C(=O)O [Compound 49, 3-(3-Methylthio-1,2,5-thiadiazol-4-yl)-1,2,5,6-tetrahydro-1-methylpyridine oxalate] | 2.3 nM | 37%
8 | CCSc1nsnc1C1=CCCN(C)C1.O=C(O)C(=O)O [Compound 65, 3-(3-Ethylthio-1,2,5-thiadiazol-4-yl)-1,2,5,6-tetrahydro-1-methylpyridine oxalate] | 1.9 nM | 69%
9 | CCCCCSc1nsnc1C1=CCCN(C)C1.O=C(O)C(=O)O [Compound 66, 3-(3-Pentylthio-1,2,5-thiadiazol-4-yl)-1,2,5,6-tetrahydro-1-methylpyridine oxalate] | 4.8 nM | 87%
10 | CCOc1nsnc1C1=CCCNC1.Cl [Compound 215, 3-(3-Ethoxy-1,2,5-thiadiazol-4-yl)-1,2,5,6-tetrahydropyridine hydrochloride] | 10.5 nM | 61%
11 | CCSc1nsnc1C1=CCCNC1.Cl [Compound 216, 3-(3-Ethylthio-1,2,5-thiadiazol-4-yl)-1,2,5,6-tetrahydropyridine hydrochloride] | 6.5 nM | 12%
12 | CCCSc1nsnc1C1=CCCNC1.O=C(O)C(=O)O [Compound 217, 3-(3-Propylthio-1,2,5-thiadiazol-4-yl)-1,2,5,6-tetrahydropyridine oxalate] | 1.2 nM | 30%
13 | CCCCSc1nsnc1C1=CCCNC1.O=C(O)C(=O)O [Compound 218, 3-(3-Butylthio-1,2,5-thiadiazol-4-yl)-1,2,5,6-tetrahydropyridine oxalate] | 3.5 nM | 39%
14 | CCCCCSc1nsnc1C1=CCCNC1.O=C(O)C(=O)O [Compound 219, 3-(3-Pentylthio-1,2,5-thiadiazol-4-yl)-1,2,5,6-tetrahydropyridine oxalate] | 5.8 nM | 79%
15 | CCCCCCSc1nsnc1C1=CCCNC1 [Compound 220, 3-(3-Hexylthio-1,2,5-thiadiazol-4-yl-1,2,5,6-tetrahydropyridine oxalate] | 3 nM | 88%
16 | Cl.FC(F)(F)CSc1nsnc1C1=CCCNC1 [Compound 222, 3-(3-(2,2,2-Trifluoroethylthio)-1,2,5-thiadiazol-4-yl)-1,2,5,6-tetrahydropyridine hydrochloride] | 0.42 nM | 0%
17 | Cl.FC(F)(F)COc1nsnc1C1=CCCNC1 [Compound 223, 3-(3-(2,2,2-Trifluoroethoxy)-1,2,5-thiadiazol-4-yl)-1,2,5,6-tetrahydropyridine hydrochloride] | 7.4 nM | 31%
18 | CN1CCC=C(c2nsnc2SCCSc2cccs2)C1 [Compound 228, 3-(3-(2-(2-Thienylthio)ethylthio))-1,2,5-thiadiazol-4-yl)-1,2,5,6-tetrahydro-1-methylpyridine oxalate] | 0.6 nM | 92%
